Patent US20250195511A1, “INDAZOLE DERIVATIVES USEFUL AS INHIBITORS OF NOD-LIKE RECEPTOR PROTEIN 3” (Merck Sharp & Dohme LLC, priority 2023, published 2025)
pEC50: −log10 of the molar value.

Tested on: NLRP3 inflammasome
Assay: NLRP3 inflammasome activation: ASC-SPECK formation in gramicidin-stimulated THP-1 cells
Assay type: cell-based
Details: PMA-treated human monocytic THP-1 cells, compound 1 h before 12.5 μg/ml gramicidin, 3-hour treatment
How it was run: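 Undifferentiated human THP-1 cells primed overnight with 10 ng/ml PMA, then given compounds 1 h before 12.5 μg/ml gramicidin for 3 h at 37° C in RPMI with 0.01% BSA. Fixed cells immunostained for ASC with DRAQ5 nuclear counterstain; DRAQ5-positive cells with ASC specks counted by high-content imaging; EC50 from curve fitting.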

[1] = Homo sapiens, THP-1, inhibition of ASC SPECK formation
[2] = inhibition of ASC SPECK formation

SMILES	pEC50 [1]	pEC50 [2]
Cc1cc(C(F)(F)F)cc(O)c1-c1cnc2cn(C34COC(CO)(C3)C4)nc2n1 [Example 41, 2-[2-[1-(hydroxymethyl)-2-oxabicyclo[2.1.1]hexan-4-yl]pyrazolo[3,4-b]pyrazin-6-yl]-3-methyl-5-(trifluoromethyl)phenol]	7.11	
Cc1cc(C(F)(F)F)cc(O)c1-c1cnc2cn(C34COC(C)(C3)C4)nc2n1 [Example 27, 3-methyl-2-[2-(1-methyl-2-oxabicyclo[2.1.1]hexan-4-yl)pyrazolo[3,4-b]pyrazin-6-yl]-5-(trifluoromethyl)phenol]	6.71	
Cc1cc(C(F)(F)F)cc(O)c1-c1cnc2cn([C@H]3[C@@H]4COC[C@@H]43)nc2n1 [Example 10, 2-(2-((1R,5S,6R)-3-oxabicyclo[3.1.0]hexan-6-yl)-2H-pyrazolo[3,4-b]pyrazin-6-yl)-3-methyl-5-(trifluoromethyl)phenol]	7.47	
Cc1cc(C(F)(F)F)cc(O)c1-c1cnc2cn(C3CC4CCC(C3)O4)nc2n1 (stereo not shown) [Example 45, 3-methyl-2-[2-(8-oxabicyclo[3.2.1]octan-3-yl)pyrazolo[3,4-b]pyrazin-6-yl]-5-(trifluoromethyl)phenol]	7.15	
Cc1cc(C(F)(F)F)cc(O)c1-c1cnc2cn(CC3CC(=O)N(C4CC4)C3)nc2n1 (single isomer, unassigned) [Example 62, (R or S)-1-cyclopropyl-4-((6-(2-hydroxy-6-methyl-4-(trifluoromethyl)phenyl)-2H-pyrazolo[3,4-b]pyrazin-2-yl)methyl)pyrrolidin-2-one]		6.54
Cc1cc(C(F)(F)F)cc(O)c1-c1cnc2cn([C@@H]3COCC[C@H]3O)nc2n1 [Example 34, (3R,4R)-3-[6-[2-hydroxy-6-methyl-4-(trifluoromethyl)phenyl]pyrazolo[3,4-b]pyrazin-2-yl]tetrahydropyran-4-ol]	7.36	
Cc1cc(C(F)(F)F)cc(O)c1-c1cnc2cn(C34CC(C)(C3)OC4C)nc2n1 (racemic) [Example 24, (S and R)-2-(2-(1,3-dimethyl-2-oxabicyclo[2.1.1]hexan-4-yl)-2H-pyrazolo[3,4-b]pyrazin-6-yl)-3-methyl-5-(trifluoromethyl)phenol]	6.37	
Cc1cc(C(F)(F)F)cc(O)c1-c1cnc2cn(C3C4CS(=O)(=O)CC43)nc2n1 (single isomer, unassigned) [Example 53, (1R,5S,6S or 1R,5S,6R)-6-(6-(2-hydroxy-6-methyl-4-(trifluoromethyl)phenyl)-2H-pyrazolo[3,4-b]pyrazin-2-yl)-3-thiabicyclo[3.1.0]hexane 3,3-dioxide]		6.01
CCN1CC(n2cc3ncc(-c4c(C)cc(C(F)(F)F)cc4O)nc3n2)CCC1=O (single isomer, unassigned) [Example 65, (S or R)-1-ethyl-5-(6-(2-hydroxy-6-methyl-4-(trifluoromethyl)phenyl)-2H-pyrazolo[3,4-b]pyrazin-2-yl)piperidin-2-one]		7.10

Further lines, results first:

pEC50 [1]	pEC50 [2]	SMILES
	7.00	Cc1cc(C(F)(F)F)cc(O)c1-c1cnc2cn([C@H]3CCO[C@H](C)C3)nc2n1 (single isomer, unassigned) [Example 90, 3-methyl-2-(2-((2S,4R or 2R,4S)-2-methyltetrahydro-2H-pyran-4-yl)-2H-pyrazolo[3,4-b]pyrazin-6-yl)-5-(trifluoromethyl)phenol]
	7.04	Cc1cc(C(F)(F)F)cc(O)c1-c1cnc2cn([C@H]3CCO[C@@H](C)C3)nc2n1 (single isomer, unassigned) [Example 94, 3-methyl-2-(2-((2R,4R or 2S,4S)-2-methyltetrahydro-2H-pyran-4-yl)-2H-pyrazolo[3,4-b]pyrazin-6-yl)-5-(trifluoromethyl)phenol]
	6.36	Cc1cc(C(F)(F)F)cc(O)c1-c1cnc2cn(CC3CC(=O)N(C(C)C)C3)nc2n1 (single isomer, unassigned) [Example 81, (S or R)-4-((6-(2-hydroxy-6-methyl-4-(trifluoromethyl)phenyl)-2H-pyrazolo[3,4-b]pyrazin-2-yl)methyl)-1-isopropylpyrrolidin-2-one]
	6.93	Cc1cc(C(F)(F)F)cc(O)c1-c1cnc2cn([C@H]3CCOC[C@H]3F)nc2n1 (single isomer, unassigned) [Example 101, 2-(2-((3S,4S or 3R,4R)-3-fluorotetrahydro-2H-pyran-4-yl)-2H-pyrazolo[3,4-b]pyrazin-6-yl)-3-methyl-5-(trifluoromethyl)phenol]
	6.41	Cc1cc(C(F)(F)F)cc(O)c1-c1cnc2cn(C3CCOC(C)(C)C3)nc2n1 (single isomer, unassigned) [Example 95, (R or S)-2-(2-(2,2-dimethyltetrahydro-2H-pyran-4-yl)-2H-pyrazolo[3,4-b]pyrazin-6-yl)-3-methyl-5-(trifluoromethyl)phenol]
6.63		Cc1cc(C(F)(F)F)cc(O)c1-c1cnc2cn(C3CCOC(C)(C)C3)nc2n1 (single isomer, unassigned) [Example 96, (S or R)-2-(2-(2,2-dimethyltetrahydro-2H-pyran-4-yl)-2H-pyrazolo[3,4-b]pyrazin-6-yl)-3-methyl-5-(trifluoromethyl)phenol]
	6.35	Cc1cc(C(F)(F)F)cc(O)c1-c1cnc2cn(C34CC3COC4(C)C)nc2n1 (single isomer, unassigned) [Example 77, 2-(2-((1S,5S or 1R,5R)-2,2-dimethyl-3-oxabicyclo[3.1.0]hexan-1-yl)-2H-pyrazolo[3,4-b]pyrazin-6-yl)-3-methyl-5-(trifluoromethyl)phenol]
6.19		CCOCOc1cc(C(F)(F)F)cc(C)c1-c1cnc2c([C@H](C)O)n(C[C@H]3CC(=O)N(C4CC4)C3)nc2n1 (single isomer, unassigned) [Example 113, (S or R)-1-cyclopropyl-4-((6-(2-(ethoxymethoxy)-6-methyl-4-(trifluoromethyl)phenyl)-3-((S or R)-1-hydroxyethyl)-2H-pyrazolo[3,4-b]pyrazin-2-yl)methyl)pyrrolidin-2-one]
	7.00	Cc1cc(C(F)(F)F)cc(O)c1-c1cnc2cn(C34CC3COC4(C)C)nc2n1 (single isomer, unassigned) [Example 76, 2-(2-((1R,5R or 1S,5S)-2,2-dimethyl-3-oxabicyclo[3.1.0]hexan-1-yl)-2H-pyrazolo[3,4-b]pyrazin-6-yl)-3-methyl-5-(trifluoromethyl)phenol]
	5.41	Cc1cc(C(F)(F)F)cc(O)c1-c1cnc2c(C(C)O)n(C3CCC(=O)N(C(C)C)C3)nc2n1 (single isomer, unassigned) [Example 120, (S or R)-5-(6-(2-hydroxy-6-methyl-4-(trifluoromethyl)phenyl)-3-((R or S)-1-hydroxyethyl)-2H-pyrazolo[3,4-b]pyrazin-2-yl)-1-isopropylpiperidin-2-one]
6.36		Cc1cc(C(F)(F)F)cc(O)c1-c1cnc2cn(C3CCOCC3(F)F)nc2n1 (single isomer, unassigned) [Example 105, (R or S)-2-(2-(3,3-difluorotetrahydro-2H-pyran-4-yl)-2H-pyrazolo[3,4-b]pyrazin-6-yl)-3-methyl-5-(trifluoromethyl)phenol]
7.24		CCOCOc1cc(C(F)(F)F)cc(C)c1-c1cnc2c([C@@H](C)O)n(C[C@H]3CC(=O)N(C4CC4)C3)nc2n1 (single isomer, unassigned) [Example 114, (S or R)-1-cyclopropyl-4-((6-(2-(ethoxymethoxy)-6-methyl-4-(trifluoromethyl)phenyl)-3-((R or S)-1-hydroxyethyl)-2H-pyrazolo[3,4-b]pyrazin-2-yl)methyl)pyrrolidin-2-one]
	6.55	Cc1cc(C(F)(F)F)cc(O)c1-c1cnc2c(C)n(C3CCC(=O)NC3)nc2n1 (single isomer, unassigned) [Example 109, (S or R)-5-(6-(2-hydroxy-6-methyl-4-(trifluoromethyl)phenyl)-3-methyl-2H-pyrazolo[3,4-b]pyrazin-2-yl)piperidin-2-one]
